In PubChem BioAssay (NCI):
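Exposure lasted 48 hours, with cells grown in 96-well plates and compounds tested at five concentrations. TGI: concentration producing complete growth inhibition.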

What was measured:
Experiment in all cases: NCI tumour cell line growth inhibition, 48 h
MDA-MB-435 = test system: MDA-MB-435
MCF7 breast = test system: MCF7 breast
NCI-H23 lung = test system: NCI-H23 lung
786-0 renal = test system: 786-0 renal
U251 CNS = test system: U251 CNS
HOP-92 NSCLC = test system: HOP-92 NSCLC
MDA-MB-231 breast = test system: MDA-MB-231 breast
COLO 205 colon = test system: COLO 205 colon
SF-539 CNS = test system: SF-539 CNS
ACHN renal = test system: ACHN renal
UACC-62 melanoma = test system: UACC-62 melanoma
DU-145 prostate = test system: DU-145 prostate
SK-OV-3 ovarian = test system: SK-OV-3 ovarian
T-47D breast = test system: T-47D breast
BT-549 breast = test system: BT-549 breast
SNB-75 CNS = test system: SNB-75 CNS
NCI-H522 lung = test system: NCI-H522 lung
MALME-3M melanoma = test system: MALME-3M melanoma
HS 578T breast = test system: HS 578T breast
TK-10 renal = test system: TK-10 renal
SK-MEL-2 melanoma = test system: SK-MEL-2 melanoma
SK-MEL-5 melanoma = test system: SK-MEL-5 melanoma
SW-620 colon = test system: SW-620 colon
SR leukemia = test system: SR leukemia
EKVX NSCLC = test system: EKVX NSCLC
OVCAR-5 ovarian = test system: OVCAR-5 ovarian
NCI/ADR-RES ovarian = test system: NCI/ADR-RES ovarian
UO-31 renal = test system: UO-31 renal
MOLT-4 leukemia = test system: MOLT-4 leukemia
NCI-H226 lung = test system: NCI-H226 lung
A549 NSCLC = test system: A549 NSCLC
K-562 leukemia = test system: K-562 leukemia
PC-3 prostate = test system: PC-3 prostate
MDA-N = test system: MDA-N
KM12 colon = test system: KM12 colon
HCT-116 colon = test system: HCT-116 colon
SF-268 CNS = test system: SF-268 CNS
UACC-257 melanoma = test system: UACC-257 melanoma
RPMI-8226 leukemia = test system: RPMI-8226 leukemia
RXF 393 renal = test system: RXF 393 renal
NCI-H460 lung = test system: NCI-H460 lung
OVCAR-4 ovarian = test system: OVCAR-4 ovarian
SN12C renal = test system: SN12C renal
OVCAR-8 ovarian = test system: OVCAR-8 ovarian
CAKI-1 renal = test system: CAKI-1 renal
M14 melanoma = test system: M14 melanoma
IGROV1 ovarian = test system: IGROV1 ovarian
HCT-15 colon = test system: HCT-15 colon
HT29 colon = test system: HT29 colon
SNB-19 CNS = test system: SNB-19 CNS
SF-295 CNS = test system: SF-295 CNS
LOX IMVI melanoma = test system: LOX IMVI melanoma
A498 renal = test system: A498 renal
CCRF-CEM leukemia = test system: CCRF-CEM leukemia
HOP-62 NSCLC = test system: HOP-62 NSCLC
HCC-2998 colon = test system: HCC-2998 colon
HL-60(TB) leukemia = test system: HL-60(TB) leukemia
SK-MEL-28 melanoma = test system: SK-MEL-28 melanoma
OVCAR-3 ovarian = test system: OVCAR-3 ovarian

Measured: TGI

CC(NC(=O)Cc1ccccc1)NC(=O)C(C)C(=O)Nc1ccccc1 (stereo unspecified)
88 µM: HS 578T breast
75.8 µM: SNB-19 CNS
74.3 µM: NCI-H226 lung
not listed: LOX IMVI melanoma | A498 renal | CCRF-CEM leukemia | HOP-62 NSCLC | HCC-2998 colon | HL-60(TB) leukemia | SK-MEL-28 melanoma | OVCAR-3 ovarian
> 100 µM: all other assays above

CC(=NNC(=S)Nc1ccccc1)c1cccc(C(C)=NNC(=S)Nc2ccccc2)n1
52.5 µM: MALME-3M melanoma
> 80.8 µM: A498 renal
> 46.4 µM: A549 NSCLC
12.5 µM: SF-539 CNS
> 44 µM: NCI-H226 lung
> 40.1 µM: SK-MEL-5 melanoma
> 50.2 µM: HOP-92 NSCLC | OVCAR-8 ovarian | IGROV1 ovarian
> 22.9 µM: CAKI-1 renal
35.4 µM: 786-0 renal
> 30.7 µM: MCF7 breast
36.6 µM: RXF 393 renal
> 28.5 µM: OVCAR-3 ovarian
> 30.1 µM: MOLT-4 leukemia
> 52.1 µM: UO-31 renal
> 31.4 µM: RPMI-8226 leukemia
6.86 µM: ACHN renal
> 53.5 µM: K-562 leukemia
> 84.5 µM: SK-OV-3 ovarian
> 56.8 µM: NCI-H460 lung
21.2 µM: M14 melanoma
> 42 µM: SF-295 CNS
26.7 µM: UACC-62 melanoma
> 20.6 µM: HL-60(TB) leukemia
not listed: SR leukemia
> 100 µM: all other assays above

C/C(C[n+]1ccccc1)=N\N=C(N)N
not listed: SF-539 CNS | SR leukemia
> 100 µM: all other assays above
